Source: patent US20260001914A1, “MACROCYCLIC PEPTIDES TARGETING KRAS” (Merck Sharp & Dohme LLC, priority 2022, published 2026)
pEC50: −log10 of the molar value. *1 amine or outer side, *2 acyl side, *3 side chain or, on linkers, in order; H or OH if unused. Where a SMILES comes first, the peptide text is derived from it. Bridges are numbered along the chain shown (N, C = ends). [ ]: non-standard residue; d: D form. Phe(4-guanidino) = N=C(N)Nc1ccc(C[C@H](N)C(=O)O)cc1; X72 = CC1(C)NC(=N)N(CCC[C@H](N[*:1])C(=O)[*:2])C1=O; Phe(3,4-Cl2) = N[C@@H](Cc1ccc(Cl)c(Cl)c1)C(=O)O; Ala(pyrimidin-5-yl) = N[C@@H](Cc1cncnc1)C(=O)O; X6 = O=C([C@H](Cc1cnn(C2COC2)c1)N[*:1])[*:2]; Phe(2-CN) = N#Cc1ccccc1C[C@H](N)C(=O)O; Phe(2-F) = N[C@@H](Cc1ccccc1F)C(=O)O; NMe3Pal = CN[C@@H](Cc1cccnc1)C(=O)O; X1 = O=C(C12CC(CN[*:1])(C1)C2)[*:2]; NMeCha = CN[C@@H](CC1CCCCC1)C(=O)O; Ala(cPr) = N[C@@H](CC1CC1)C(=O)O; NMeF = CN[C@@H](Cc1ccccc1)C(=O)O; PhLac = O=C(O)[C@@H](O)Cc1ccccc1; 3Pal = N[C@@H](Cc1cccnc1)C(=O)O; d3Pal = N[C@H](Cc1cccnc1)C(=O)O; X50 = CC(CCCC(=O)[*:2])N[*:1]; Ahp(2) = CCCCC[C@H](N)C(=O)O; Cba = N[C@@H](CC1CCC1)C(=O)O; hLeu = CC(C)CC[C@H](N)C(=O)O; NMeS = CN[C@@H](CO)C(=O)O; αMeC = C[C@](N)(CS)C(=O)O; NMeA = CN[C@@H](C)C(=O)O; Nle = CCCC[C@H](N)C(=O)O

These compounds were tested against KRAS-G12D protein (Homo sapiens, UniProt P01116, G12D) (assay: SOS-mediated nucleotide exchange assay (BODIPY-GDP / Tb-streptavidin TR-FRET)).
Format: biochemical

KRAS-G12D protein, sequence (P01116 1-188 isoform P01116-2 G12D): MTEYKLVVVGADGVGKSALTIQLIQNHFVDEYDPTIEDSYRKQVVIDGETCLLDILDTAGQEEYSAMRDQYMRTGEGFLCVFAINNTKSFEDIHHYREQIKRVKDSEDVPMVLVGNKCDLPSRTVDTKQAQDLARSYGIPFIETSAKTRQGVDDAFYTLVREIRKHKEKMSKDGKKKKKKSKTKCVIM

Structure (SMILES) | pEC50
CCCCC[C@@H]1NC(=O)[C@H](Cc2ccccc2C#N)NC(=O)[C@H](CC2CCC2)NC(=O)[C@H](Cc2cccnc2)NC(=O)[C@H](CCCNC(=N)N)NC(=O)[C@H](Cc2ccccc2)NC(=O)CSC[C@@](C)(C(N)=O)NC(=O)[C@H](Cc2ccccc2)N(C)C1=O [compound 375, cyclo(F-R-3Pal-cBuA-Phe2CN-Ahp-NMeF-aMeCl-ClAc)] ({CH2CO}-FR[3Pal][Cba][Phe(2-CN)][Ahp(2)][NMeF][αMeC]-NH2; thioether N-8) | 7.24
CCCC[C@@H]1NC(=O)[C@H](Cc2ccc(Cl)c(Cl)c2)NC(=O)[C@H](C)N(C)C(=O)[C@H](Cc2ccccc2)OC(=O)C23CC(CNC(=O)[C@H](Cc4ccccc4)N(C)C(=O)[C@H](CCCC)NC(=O)[C@H](Cc4ccccc4F)NC1=O)(C2)C3 [compound 309, cyclo(FLac-NMeA-Phe34Cl2-Nle-Phe2F-Nle-NMeF-amBCP)] (cyclo([NMeA][Phe(3,4-Cl2)][Nle][Phe(2-F)][Nle][NMeF][X1][PhLac])) | 6.97
CCCC[C@@H]1NC(=O)[C@H](Cc2cccnc2)NC(=O)[C@H](CO)N(C)C(=O)[C@H](Cc2ccccc2)OC(=O)C23CC(CNC(=O)[C@H](Cc4cccnc4)N(C)C(=O)[C@H](CCCC)NC(=O)[C@H](Cc4ccccc4F)NC1=O)(C2)C3 [compound 118, cyclo(FLac-NMeS-3Pal-Nle-Phe2F-Nle-NMe3Pal-amBCP)] (cyclo([3Pal][Nle][Phe(2-F)][Nle][NMe3Pal][X1][PhLac][NMeS])) | 6.33
CCCC[C@@H]1NC(=O)[C@H](Cc2cnc(C#N)nc2)NC(=O)[C@H](C)N(C)C(=O)[C@H](Cc2ccccc2)OC(=O)C23CC(CNC(=O)[C@H](Cc4ccccc4)N(C)C(=O)[C@H](CCCC)NC(=O)[C@H](Cc4ccccc4F)NC1=O)(C2)C3 (single isomer, unassigned) [compound 314, cyclo(FLac-NMeA-AlaPyrim4CN-Nle-Phe2F-Nle-NMeF-amBCP)] | 7.60
CCCC[C@@H]1NC(=O)[C@H](Cc2ccc(NC(=N)N)cc2)NC(=O)[C@H](CCCNC(=N)N)NC(=O)[C@H](Cc2ccccc2)NC(=O)CCCC(C)NC(=O)[C@H](Cc2ccccc2)N(C)C(=O)[C@H](CCCC)NC(=O)[C@H](Cc2ccc(OC)cc2)NC1=O (some centres unmarked) [compound 93, cyclo(F-R-Phe4Gn-Nle-TyrOMe-Nle-NMeF-SamHex)] (cyclo(FR[Phe(4-guanidino)][Nle]Y(Me)[Nle][NMeF][X50])) | 6.85
CCCC[C@@H]1NC(=O)[C@H](Cc2ccccc2F)NC(=O)[C@H](CC2CCC2)NC(=O)[C@@H](Cc2cccnc2)NC(=O)[C@H](CCCN2C(=N)NC(C)(C)C2=O)NC(=O)[C@H](Cc2ccccc2)NC(=O)C23CC(CNC(=O)[C@H](Cc4cccnc4)N(C)C1=O)(C2)C3 [compound 105, cyclo(F-baceNva-d3Pal-cBuA-Phe2F-Nle-NMe3Pal-amBCP)] (cyclo(F[X72][d3Pal][Cba][Phe(2-F)][Nle][NMe3Pal][X1])) | 8.12
CCCC[C@@H]1NC(=O)[C@H](Cc2cccnc2)NC(=O)[C@H](C)N(C)C(=O)[C@H](Cc2ccccc2)OC(=O)C23CC(CNC(=O)[C@H](CC4CCCCC4)N(C)C(=O)[C@H](CCCC)NC(=O)[C@H](Cc4ccccc4F)NC1=O)(C2)C3 [compound 232, cyclo(FLac-NMeA-3Pal-Nle-Phe2F-Nle-NMeCha-amBCP)] (cyclo([3Pal][Nle][Phe(2-F)][Nle][NMeCha][X1][PhLac][NMeA])) | 5.53
CC(C)CC[C@@H]1NC(=O)[C@H](Cc2cnn(C3COC3)c2)NC(=O)[C@H](CC2CC2)NC(=O)[C@H](Cc2cncnc2)NC(=O)[C@H](C)N(C)C(=O)[C@H](Cc2ccccc2)OC(=O)C23CC(CNC(=O)[C@H](Cc4ccccc4)N(C)C1=O)(C2)C3 [compound 300, cyclo(FLac-NMeA-PyrimAla-cPrA-AlaPyz1Ox-hL-NMeF-amBCP)] (cyclo([Ala(cPr)][X6][hLeu][NMeF][X1][PhLac][NMeA][Ala(pyrimidin-5-yl)])) | 6.60
